Laboratory results as given in patent US9186318B2, “Quinolyl-containing hydroxamic acid compound and preparation method thereof, and pharmaceutical composition containing this compound and use thereof” (Beijing Konruns Pharmaceutical Co., Ltd, priority 2011, dated 2015).

Tests used:
Assay in all cases: KinomeScan 96-kinase panel
Format in all cases: binding
Details in all cases: compound concentration 1000 nM
ABL1-phosphorylated = ABL1-phosphorylated (Homo sapiens (Human), UniProt P00519)
Description: (§1) The details of the screening technology were described in Fabian, M. A. et al, Nat., Biotechnol. 2005, 23, 329 and Karaman, M. W. et al, Nat., Biotechnol. 2008, 26, 127. From the above representative results, it can be seen that the compounds of the present invention have potent inhibitory activities on kinases including ALK, AXL, VEGFR2, PDGFR-α, PDGFR-β, c-KIT, Flt3, MEK1, MEK2, CSF1R, EPHA2, EPHA2, MKNK2, SRC, TIE2 and their mutants. Accordingly, the compounds of the present invention can be used for the treatment of diseases caused by abnormal activities of these kinases, e.g., cancer, psoriasis, hepatic cirrhosis, diabetes, diseases involving angiogenesis, eye diseases, immune system diseases, cardiovascular diseases, and so forth.

AKT1 = AKT1 (Homo sapiens (Human), UniProt P31749)
Description: as §1

BRAF = BRAF (Homo sapiens (Human), UniProt P15056)
Description: as §1

CDK9 = CDK9 (Homo sapiens (Human), UniProt P50750)
Description: as §1

GSK3B = GSK3B (Homo sapiens (Human), UniProt P49841)
Description: as §1

IKK-beta = IKK-beta (Homo sapiens (Human), UniProt O14920)
Description: as §1

[1] = molecular target: JAK3 (JH1domain-catalytic) (Homo sapiens (Human), UniProt P52333)
Description: as §1

JNK1 = JNK1 (Homo sapiens (Human), UniProt P45983)
Sequence of JNK1 (P45983 whole entry): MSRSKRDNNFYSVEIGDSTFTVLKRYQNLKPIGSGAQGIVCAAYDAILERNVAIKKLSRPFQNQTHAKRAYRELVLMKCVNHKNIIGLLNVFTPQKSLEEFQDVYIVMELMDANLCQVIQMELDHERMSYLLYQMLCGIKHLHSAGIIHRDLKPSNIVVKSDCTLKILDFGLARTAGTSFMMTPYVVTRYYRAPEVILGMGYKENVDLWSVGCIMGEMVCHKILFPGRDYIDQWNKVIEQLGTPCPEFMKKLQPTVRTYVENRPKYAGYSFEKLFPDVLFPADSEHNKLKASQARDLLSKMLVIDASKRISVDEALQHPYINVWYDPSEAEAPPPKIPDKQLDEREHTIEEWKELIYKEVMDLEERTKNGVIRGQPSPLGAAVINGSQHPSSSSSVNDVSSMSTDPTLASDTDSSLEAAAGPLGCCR
Description: as §1

KIT = KIT (Homo sapiens (Human), UniProt P10721)
Description: as §1

LKB1 = LKB1 (Homo sapiens (Human), UniProt Q15831)
Sequence of LKB1 (Q15831 whole entry): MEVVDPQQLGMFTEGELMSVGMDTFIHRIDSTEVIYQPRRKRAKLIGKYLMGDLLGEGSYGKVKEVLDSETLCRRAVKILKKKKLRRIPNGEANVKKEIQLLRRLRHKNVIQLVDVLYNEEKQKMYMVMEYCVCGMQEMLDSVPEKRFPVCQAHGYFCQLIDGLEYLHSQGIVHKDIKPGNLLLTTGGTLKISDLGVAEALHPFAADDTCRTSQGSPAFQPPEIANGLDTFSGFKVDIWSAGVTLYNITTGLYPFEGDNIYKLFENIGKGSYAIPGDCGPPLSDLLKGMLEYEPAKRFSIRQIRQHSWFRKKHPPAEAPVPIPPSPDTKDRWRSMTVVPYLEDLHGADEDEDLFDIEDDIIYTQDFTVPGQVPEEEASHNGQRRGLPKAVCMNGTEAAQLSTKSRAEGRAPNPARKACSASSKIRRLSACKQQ
Description: as §1

MAP3K4 = MAP3K4 (Homo sapiens (Human), UniProt Q9Y6R4)
Description: as §1

MAPKAPK2 = MAPKAPK2 (Homo sapiens (Human), UniProt P49137)
Sequence of MAPKAPK2 (P49137 whole entry): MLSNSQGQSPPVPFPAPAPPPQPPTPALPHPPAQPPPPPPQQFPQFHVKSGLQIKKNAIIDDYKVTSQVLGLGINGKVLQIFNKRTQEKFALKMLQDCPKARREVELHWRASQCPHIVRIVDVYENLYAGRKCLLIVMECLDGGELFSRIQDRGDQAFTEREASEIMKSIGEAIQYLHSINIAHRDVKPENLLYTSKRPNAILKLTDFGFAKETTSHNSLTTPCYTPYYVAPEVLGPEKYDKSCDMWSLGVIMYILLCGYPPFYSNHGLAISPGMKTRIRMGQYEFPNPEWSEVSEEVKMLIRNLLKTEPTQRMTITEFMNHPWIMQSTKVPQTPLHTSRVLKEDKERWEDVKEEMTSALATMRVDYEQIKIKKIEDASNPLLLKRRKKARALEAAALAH
Description: as §1

MKNK2 = MKNK2 (Homo sapiens (Human), UniProt Q9HBH9)
Sequence of MKNK2 (Q9HBH9 whole entry): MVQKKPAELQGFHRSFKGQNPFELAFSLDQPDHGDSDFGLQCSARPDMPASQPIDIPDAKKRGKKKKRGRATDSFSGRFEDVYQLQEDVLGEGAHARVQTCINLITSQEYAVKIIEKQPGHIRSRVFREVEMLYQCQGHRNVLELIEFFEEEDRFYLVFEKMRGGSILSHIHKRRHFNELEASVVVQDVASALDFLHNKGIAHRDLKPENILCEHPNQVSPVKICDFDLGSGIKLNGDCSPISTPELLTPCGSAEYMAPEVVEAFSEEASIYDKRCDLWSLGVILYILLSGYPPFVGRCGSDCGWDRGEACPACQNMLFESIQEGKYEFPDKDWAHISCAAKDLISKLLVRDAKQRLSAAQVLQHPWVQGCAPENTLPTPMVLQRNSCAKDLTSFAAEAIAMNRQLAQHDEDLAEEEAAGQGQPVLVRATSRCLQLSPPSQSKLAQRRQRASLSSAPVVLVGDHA
Description: as §1

PDGFRA = PDGFRA (Homo sapiens (Human), UniProt P16234)
Description: as §1

PIK3C2B = PIK3C2B (Homo sapiens (Human), UniProt O00750)
Description: as §1

PIM1 = PIM1 (Homo sapiens (Human), UniProt P11309)
Sequence of PIM1 (P11309 whole entry): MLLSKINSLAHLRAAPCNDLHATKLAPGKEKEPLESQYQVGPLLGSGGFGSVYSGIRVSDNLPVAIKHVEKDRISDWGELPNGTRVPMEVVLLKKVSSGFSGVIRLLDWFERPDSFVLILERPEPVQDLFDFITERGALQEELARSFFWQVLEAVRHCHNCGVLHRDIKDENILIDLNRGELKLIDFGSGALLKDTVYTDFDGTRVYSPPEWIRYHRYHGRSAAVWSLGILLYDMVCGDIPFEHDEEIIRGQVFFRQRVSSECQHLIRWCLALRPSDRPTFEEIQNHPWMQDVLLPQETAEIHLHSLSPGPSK
Description: as §1

PIM2 = PIM2 (Homo sapiens (Human), UniProt Q9P1W9)
Sequence of PIM2 (Q9P1W9 whole entry): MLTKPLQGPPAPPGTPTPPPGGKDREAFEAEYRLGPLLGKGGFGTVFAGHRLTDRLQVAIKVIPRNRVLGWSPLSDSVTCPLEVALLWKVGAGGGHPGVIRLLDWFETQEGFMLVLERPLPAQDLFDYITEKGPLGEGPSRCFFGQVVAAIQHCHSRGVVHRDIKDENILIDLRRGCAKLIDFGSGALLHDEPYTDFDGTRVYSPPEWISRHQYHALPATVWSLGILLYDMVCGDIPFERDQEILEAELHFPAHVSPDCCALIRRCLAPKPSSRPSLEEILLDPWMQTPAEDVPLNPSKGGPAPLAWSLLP
Description: as §1

RET = RET (Homo sapiens (Human), UniProt P07949)
Description: as §1

TSSK1B = TSSK1B (Homo sapiens (Human), UniProt Q9BXA7)
Description: as §1

VEGFR2 = VEGFR2 (Homo sapiens (Human), UniProt P35968)
Sequence of VEGFR2 (P35968 20-1356): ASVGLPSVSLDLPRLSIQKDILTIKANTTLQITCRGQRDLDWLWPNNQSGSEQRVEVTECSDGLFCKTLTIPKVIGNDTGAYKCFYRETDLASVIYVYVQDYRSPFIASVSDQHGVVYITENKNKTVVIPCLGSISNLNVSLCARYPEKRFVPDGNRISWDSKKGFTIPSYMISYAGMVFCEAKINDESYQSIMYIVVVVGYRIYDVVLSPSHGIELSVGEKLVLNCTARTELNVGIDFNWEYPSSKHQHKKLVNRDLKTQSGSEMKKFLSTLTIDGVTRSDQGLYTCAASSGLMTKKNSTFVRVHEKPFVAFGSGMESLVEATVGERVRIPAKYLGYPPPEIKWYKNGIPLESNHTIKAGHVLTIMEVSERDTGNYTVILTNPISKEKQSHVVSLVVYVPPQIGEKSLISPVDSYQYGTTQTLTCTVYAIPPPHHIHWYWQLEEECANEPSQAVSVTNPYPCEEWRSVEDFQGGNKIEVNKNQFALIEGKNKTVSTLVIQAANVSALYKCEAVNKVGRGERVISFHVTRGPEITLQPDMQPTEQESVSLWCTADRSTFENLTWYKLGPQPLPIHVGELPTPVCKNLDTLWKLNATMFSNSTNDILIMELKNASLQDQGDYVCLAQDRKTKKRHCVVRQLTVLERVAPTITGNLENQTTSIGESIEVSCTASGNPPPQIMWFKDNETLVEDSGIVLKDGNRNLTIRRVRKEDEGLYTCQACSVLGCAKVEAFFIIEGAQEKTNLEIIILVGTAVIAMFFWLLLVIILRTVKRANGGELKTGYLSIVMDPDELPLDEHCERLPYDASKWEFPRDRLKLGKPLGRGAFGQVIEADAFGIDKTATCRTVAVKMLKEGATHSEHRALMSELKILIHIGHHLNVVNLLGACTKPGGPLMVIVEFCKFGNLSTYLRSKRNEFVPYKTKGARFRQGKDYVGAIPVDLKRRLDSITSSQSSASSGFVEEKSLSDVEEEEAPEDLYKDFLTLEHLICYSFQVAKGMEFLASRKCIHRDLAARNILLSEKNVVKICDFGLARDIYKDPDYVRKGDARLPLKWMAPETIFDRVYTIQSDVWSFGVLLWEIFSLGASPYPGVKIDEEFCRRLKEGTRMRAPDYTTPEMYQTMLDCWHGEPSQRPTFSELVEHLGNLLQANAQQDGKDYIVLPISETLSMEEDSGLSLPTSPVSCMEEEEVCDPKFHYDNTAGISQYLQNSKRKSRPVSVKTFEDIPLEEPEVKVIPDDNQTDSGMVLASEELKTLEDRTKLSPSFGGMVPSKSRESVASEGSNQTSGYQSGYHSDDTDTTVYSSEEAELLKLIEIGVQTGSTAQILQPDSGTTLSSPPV
Description: as §1

YANK3 = YANK3 (Homo sapiens (Human), UniProt Q86UX6)
Description: as §1

Sequence of ABL1-phosphorylated (P00519 whole entry): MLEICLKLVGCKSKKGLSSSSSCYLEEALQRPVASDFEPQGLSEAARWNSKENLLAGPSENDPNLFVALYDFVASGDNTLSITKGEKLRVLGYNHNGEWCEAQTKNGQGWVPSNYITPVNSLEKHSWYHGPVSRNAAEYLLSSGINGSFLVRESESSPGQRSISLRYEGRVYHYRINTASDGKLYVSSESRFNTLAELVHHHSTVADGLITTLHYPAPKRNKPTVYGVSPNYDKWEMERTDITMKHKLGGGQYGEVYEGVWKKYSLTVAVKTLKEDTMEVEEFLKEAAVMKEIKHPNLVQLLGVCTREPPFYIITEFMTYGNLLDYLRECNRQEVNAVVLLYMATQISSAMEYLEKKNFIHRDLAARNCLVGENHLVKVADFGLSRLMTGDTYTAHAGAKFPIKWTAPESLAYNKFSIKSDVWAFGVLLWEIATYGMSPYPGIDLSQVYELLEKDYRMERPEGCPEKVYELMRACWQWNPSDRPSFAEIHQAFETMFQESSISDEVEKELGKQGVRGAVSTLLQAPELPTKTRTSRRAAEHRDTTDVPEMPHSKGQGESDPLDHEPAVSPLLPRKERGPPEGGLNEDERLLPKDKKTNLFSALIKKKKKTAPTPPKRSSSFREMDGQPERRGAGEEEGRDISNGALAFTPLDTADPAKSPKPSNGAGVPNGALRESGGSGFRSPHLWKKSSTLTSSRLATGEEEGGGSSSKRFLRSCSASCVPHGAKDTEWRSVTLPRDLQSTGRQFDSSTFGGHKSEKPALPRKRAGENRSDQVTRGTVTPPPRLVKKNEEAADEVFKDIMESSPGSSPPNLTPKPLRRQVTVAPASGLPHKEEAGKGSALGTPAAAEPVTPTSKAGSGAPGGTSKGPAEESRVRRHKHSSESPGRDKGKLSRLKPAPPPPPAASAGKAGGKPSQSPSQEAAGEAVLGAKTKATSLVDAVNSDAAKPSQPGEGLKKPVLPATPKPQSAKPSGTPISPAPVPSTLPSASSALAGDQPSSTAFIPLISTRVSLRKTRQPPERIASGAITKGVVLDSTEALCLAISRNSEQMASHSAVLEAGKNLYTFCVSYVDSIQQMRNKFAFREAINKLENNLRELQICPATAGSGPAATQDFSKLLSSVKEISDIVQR

COc1cc2c(Oc3ccc(NC(=O)C4(C(=O)Nc5ccc(F)cc5)CC4)cc3F)ccnc2cc1OCCCCCC(=O)NO [Example 13, N1′-[3-fluoro-4-[[7-[6-(hydroxyamino)-6-oxohexyloxy]-6-methoxy-4-quinolyl]oxy]phenyl]-N1-(4-fluorophenyl)cyclopropane-1,1-dicarboxamide]
% Ctrl@1000 nM (ABL1-phosphorylated): 4.8 % Ctrl | % Ctrl@1000 nM (AKT1): 100 % Ctrl | % Ctrl@1000 nM (BRAF): 87 % Ctrl | % Ctrl@1000 nM (CDK9): 67 % Ctrl | % Ctrl@1000 nM (GSK3B): 100 % Ctrl | % Ctrl@1000 nM (IKK-beta): 78 % Ctrl | % Ctrl@1000 nM [1]: 76 % Ctrl | % Ctrl@1000 nM (JNK1): 100 % Ctrl | % Ctrl@1000 nM (KIT): 0 % Ctrl | % Ctrl@1000 nM (LKB1): 91 % Ctrl | % Ctrl@1000 nM (MAP3K4): 100 % Ctrl | % Ctrl@1000 nM (MAPKAPK2): 67 % Ctrl | % Ctrl@1000 nM (MKNK2): 0.1 % Ctrl | % Ctrl@1000 nM (PDGFRA): 1.8 % Ctrl | % Ctrl@1000 nM (PIK3C2B): 99 % Ctrl | % Ctrl@1000 nM (PIM1): 100 % Ctrl | % Ctrl@1000 nM (PIM2): 100 % Ctrl | % Ctrl@1000 nM (RET): 0 % Ctrl | % Ctrl@1000 nM (TSSK1B): 50 % Ctrl | % Ctrl@1000 nM (VEGFR2): 1 % Ctrl | % Ctrl@1000 nM (YANK3): 84 % Ctrl
